In US8999995B2, “Isotopically enriched arylsulfonamide CCR3 antagonists” (Axikin Pharmaceuticals, Inc., priority 2010, dated 2015):
Like-named read-outs stand apart in the source and are kept apart here.

Assays:
CCR3 receptor = target: T1, CCR3 receptor (UniProt P51677); assay: CCR3 receptor binding assay ([125I]-labeled human eotaxin/CCL11 displacement on cells); details: 0.1 nM [125I]-labeled human eotaxin/CCL11, 60 min at room temperature
T1 sequence (P51677 1-355): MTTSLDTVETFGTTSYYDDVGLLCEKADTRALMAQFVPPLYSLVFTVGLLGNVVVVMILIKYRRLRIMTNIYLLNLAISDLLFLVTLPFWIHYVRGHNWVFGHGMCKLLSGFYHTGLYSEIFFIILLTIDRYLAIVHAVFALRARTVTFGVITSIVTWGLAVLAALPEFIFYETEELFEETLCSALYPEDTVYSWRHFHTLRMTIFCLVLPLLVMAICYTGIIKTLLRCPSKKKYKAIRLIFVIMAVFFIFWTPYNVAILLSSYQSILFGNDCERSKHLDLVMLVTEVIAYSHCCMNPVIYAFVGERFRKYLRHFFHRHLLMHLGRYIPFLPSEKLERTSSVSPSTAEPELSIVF
Protocol: Cells were washed once with PBS and resuspended in a binding buffer (25 mM HEPES pH 7.6, 5 mM MgCl2, 1 mM CaCl2, 0.5% BSA, 0.1% NaN3). […] of cell suspension (2×10^5 cells/well) and 0.1 nM [^125I]-labeled human eotaxin/CCL11 (2000 Ci/mmol specific activity) were mixed in a 96-well U-bottom polypropylene plate, and incubated for 60 min at room temperature for the binding reaction. The cell suspension was then transferred to a filtration plate (#MAFB, Millipore), and washed 3 times with the binding buffer containing 0.5 M NaCl, scintillant added, and the radioactivity was counted on a TopCount (Packard). For the determination of non-specific binding, the cell suspension and [^125I]-labeled human eotaxin/CCL11 were incubated in the presence of 500 nM of unlabeled human eotaxin/CCL11. See, Iino et al., “Molecular cloning and functional characterization of cynomolgus monkey (Macaca fascicularis) CC chemokine receptor, CCR3,” Cytokine 2002, 19, 276-286.

[1] = Pharmacokinetic studies in male CD1 mice (PO and IV dosing, plasma by HPLC and MS); format: in vivo, mouse; details: for Cmax / AUC(0-inf): male, CD1, mouse
Protocol: Pharmacokinetic properties of compounds A1 and A2 were determined using 144 male CD1 mice, each approximately 25 g. Animals were acclimated for 2-3 days prior to study. Body weights of animals were measured for randomization. Animals were randomized into groups of 3 mice by body weights. Compounds A1 and A2 were provided at 2 mg/mL for oral dosing and 0.2 mg/mL for intravenous dosing. Each mouse received 100 μL of a test compound (or a body weight justified dose (5 mL/kg) via PO or IV on dosing days. Approximately 1.0 mL of the whole blood was collected for each animal via cardiac puncture at each time points. The blood was collected into lithium heparin tubes, processed to plasma, and snap frozen in dry ice. Plasma samples were stored at −80° C. before analysis. The samples were further analyzed by HPLC and MS.

- Ki (CCR3 receptor): 5.4 nM
- Cmax ([1]; oral, 10 mg/kg, 2 mg/mL oral, 0.2 mg/mL intravenous dosing, 5 mL/kg, read-out: Cmax): 149 ng/mL
- AUC(0-inf) ([1]; oral, 10 mg/kg, AUCinf,norm, dose-normalised, heading: AUCinf,norm): 106 ng·h/mL
- Cmax ([1]; oral, 10 mg/kg, dose-normalised, read-out: Cmax,norm): 14.9 ng/mL
- AUC(0-inf) ([1]; oral, 10 mg/kg, read-out: AUCinf): 1060 ng·h/mL
- MRT ([1]; mouse): 6.9 h
- half-life ([1]; mouse): 2.51 h
- bioavailability ([1]; mouse, PO versus IV): 31.8%
- Tmax ([1]; mouse, oral, 10 mg/kg): 0.5 h
SMILES: [2H]c1c([2H])c(Sc2cc(Cl)cc(Cl)c2)c(S(=O)(=O)N2CCN(C3CCCC3)CC2)c([2H])c1C#N [Compound A1]
